Measurements published in article PMC2888647 (Journal of medicinal chemistry, 2009).

What was measured:
[1] = estimated; cited from earlier work
[2] = target: T1, recombinant human sEH (Homo sapiens, UniProt P34913); assay type: biochemical; settings: relative to compound 1
T1 sequence (P34913 1-555): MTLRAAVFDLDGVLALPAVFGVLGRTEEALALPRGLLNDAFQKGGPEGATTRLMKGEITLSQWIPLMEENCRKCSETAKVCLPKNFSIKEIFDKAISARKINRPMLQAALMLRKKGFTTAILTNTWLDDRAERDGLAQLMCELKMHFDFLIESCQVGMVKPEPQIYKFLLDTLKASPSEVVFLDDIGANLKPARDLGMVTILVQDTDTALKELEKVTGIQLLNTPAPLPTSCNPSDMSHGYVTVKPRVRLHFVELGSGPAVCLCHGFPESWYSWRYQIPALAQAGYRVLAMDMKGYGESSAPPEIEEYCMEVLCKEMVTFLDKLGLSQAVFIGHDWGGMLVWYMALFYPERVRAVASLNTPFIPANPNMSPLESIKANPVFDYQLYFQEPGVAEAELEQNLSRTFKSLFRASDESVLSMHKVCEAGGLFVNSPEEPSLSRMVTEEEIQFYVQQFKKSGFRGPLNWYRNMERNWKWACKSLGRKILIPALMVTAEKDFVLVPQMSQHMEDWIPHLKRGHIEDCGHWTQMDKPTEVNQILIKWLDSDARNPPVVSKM

decline of sEHi, factor with respect to 1 [2] | Compound | in vivo half-life [1]
– | CCCCC[C@@H]1O[C@@H]1C/C=C\C/C=C\C/C=C\CCCC(=O)O [14,15-EET, cis-14,15-epoxyeicosa-5(Z),8(Z),11(Z)-trienoic acid] | a few seconds to minutes
16 | CCCCCNC(=S)NCCCC/C=C\CCCCCCC(=O)O [Compd 5, 13-(3-n-Pentylthioureido)tridec-8(Z)-enoic acid] | –
